Patent US9409908B2 (priority 2012, dated 2016)
Structures can show the parent of a compound that is named as a salt. Where two headings read alike, the source gives them in different places.

Legend:
[1] = target: purified human plasma kallikrein (Homo sapiens (Human), UniProt P03952); assay: biochemical; format: biochemical
[2] = target: purified human Factor XIa (Homo sapiens (Human), UniProt P03951); assay: biochemical; format: biochemical
[3] = TFA salt, read-out: Plasma Kallikrein Ki
[4] = TFA salt, read-out: Factor XIa Ki

purified human plasma kallikrein, sequence (P03952 whole entry, looked up): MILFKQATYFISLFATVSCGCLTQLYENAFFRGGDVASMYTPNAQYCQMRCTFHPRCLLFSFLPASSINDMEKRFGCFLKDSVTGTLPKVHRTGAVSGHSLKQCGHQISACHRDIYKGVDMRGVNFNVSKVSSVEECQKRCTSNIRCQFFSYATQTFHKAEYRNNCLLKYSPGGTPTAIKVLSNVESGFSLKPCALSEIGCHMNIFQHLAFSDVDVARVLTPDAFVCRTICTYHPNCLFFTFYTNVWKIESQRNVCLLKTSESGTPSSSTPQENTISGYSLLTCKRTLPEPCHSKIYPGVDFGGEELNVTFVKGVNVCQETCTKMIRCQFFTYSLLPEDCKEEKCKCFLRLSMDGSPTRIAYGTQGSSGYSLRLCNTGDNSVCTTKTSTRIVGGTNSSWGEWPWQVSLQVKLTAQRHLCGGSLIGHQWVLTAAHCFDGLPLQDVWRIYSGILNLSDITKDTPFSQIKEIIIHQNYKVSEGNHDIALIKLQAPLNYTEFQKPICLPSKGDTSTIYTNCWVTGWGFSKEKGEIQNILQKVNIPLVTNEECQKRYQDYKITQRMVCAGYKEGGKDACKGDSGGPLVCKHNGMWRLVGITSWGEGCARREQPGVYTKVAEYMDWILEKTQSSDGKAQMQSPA
purified human plasma kallikrein, sequence (P03952 whole entry partner, looked up): as the sequence (P03952 whole entry, looked up) above
purified human Factor XIa, sequence (P03951 whole entry, looked up): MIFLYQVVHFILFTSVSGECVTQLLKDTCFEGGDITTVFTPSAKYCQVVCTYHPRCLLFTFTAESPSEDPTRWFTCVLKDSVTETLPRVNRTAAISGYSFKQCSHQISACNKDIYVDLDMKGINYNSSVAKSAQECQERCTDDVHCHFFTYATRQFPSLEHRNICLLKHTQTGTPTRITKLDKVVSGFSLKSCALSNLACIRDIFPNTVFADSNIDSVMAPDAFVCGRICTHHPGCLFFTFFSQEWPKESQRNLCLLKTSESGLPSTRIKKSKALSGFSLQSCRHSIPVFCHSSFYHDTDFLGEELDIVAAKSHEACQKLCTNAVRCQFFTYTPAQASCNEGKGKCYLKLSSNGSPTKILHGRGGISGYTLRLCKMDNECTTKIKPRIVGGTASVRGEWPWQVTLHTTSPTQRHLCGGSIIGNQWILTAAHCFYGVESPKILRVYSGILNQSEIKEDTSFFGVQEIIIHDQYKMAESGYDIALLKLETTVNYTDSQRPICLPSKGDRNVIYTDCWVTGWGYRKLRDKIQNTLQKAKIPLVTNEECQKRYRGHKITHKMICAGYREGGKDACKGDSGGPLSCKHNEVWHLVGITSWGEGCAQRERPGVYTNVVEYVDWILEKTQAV
purified human Factor XIa, sequence (P03951 whole entry partner, looked up): as the sequence (P03951 whole entry, looked up) above

SMILES | Ki ([1]; read-out: Plasma Kallikrein Ki) [nM] | Ki ([2]; read-out: Factor XIa Ki) [nM] | also measured
COC(=O)Nc1ccc2c(c1)NC(=O)[C@H](C)CCC[C@H](N1CCC(C3CCCC(C)C3)=CC1=O)c1cc-2ccn1 (single isomer, unassigned) [Example 225, TFA salt] |  |  | Ki [1, 3]: 95.5 nM; Ki [2, 4]: 26.1 nM
COC(=O)Nc1ccc2c(c1)NC(=O)[C@H](C)CCC[C@H](N1CCC(C3CCCC(C)C3)=CC1=O)c1cc-2ccn1 (single isomer, unassigned) [Example 226, TFA salt] |  |  | Ki [1, 3]: 165 nM; Ki [2, 4]: 24.6 nM
COC(=O)Nc1ccc2c(c1)C(=O)N[C@H](C)CCC[C@H](N1CCC(c3c(F)ccc(Cl)c3F)=CC1=O)c1cc-2ccn1 (single isomer, unassigned; diastereomer b) [Example 194, TFA salt] |  |  | Ki ([1]; Plasma Kallikrein Ki): 310 nM; Ki [2]: > 422 nM
COC(=O)Nc1ccc2c(c1)NC(=O)[C@H](C)CCC[C@H](N1CC(C)C(c3c(F)ccc(Cl)c3F)=CC1=O)c1cc-2ccn1 (single isomer, unassigned; isomer 1) [Example 177] |  |  | Ki ([1]; Plasma Kallikrein Ki): 4.02 nM; Ki [2]: 0.8 nM
COC(=O)Nc1ccc2c(c1)NC(=O)[C@H](C)CCC[C@H](N1CCC(c3c(OC)ccc(Cl)c3F)=CC1=O)c1cc-2ccn1 [Example 1, Methyl N-[(10R,14S)-14-[4-(3-chloro-2-fluoro-6-methoxyphenyl)-6-oxo-1,2,3,6-tetrahydropyridin-1-yl]-10-methyl-9-oxo-8,16-diazatricyclo[13.3.1.0^2,7]nonadeca-1(19),2,4,6,15,17-hexaen-5-yl]carbamate, TFA salt] | 10 | 0.87 | 
COC(=O)Nc1ccc2c(c1)NC(=O)[C@H](C)CCC[C@H](N1CCC(c3c(C)ccc(Cl)c3F)=CC1=O)c1cc-2ccn1 [Example 2, Methyl N-[(10R,14S)-14-[4-(3-chloro-2-fluoro-6-methylphenyl)-6-oxo-1,2,3,6-tetrahydropyridin-1-yl]-10-methyl-9-oxo-8,16-diazatricyclo[13.3.1.0^2,7]nonadeca-1(19),2,4,6,15,17-hexaen-5-yl]carbamate, TFA salt] | 5 | 0.23 | 
COC(=O)Nc1ccc2c(c1)NC(=O)[C@H](C)CCC[C@H](N1CCC(c3c(C#N)ccc(Cl)c3F)=CC1=O)c1cc-2ccn1 [Example 3, Methyl N-[(10R,14S)-14-[4-(3-chloro-6-cyano-2-fluorophenyl)-6-oxo-1,2,3,6-tetrahydropyridin-1-yl]-10-methyl-9-oxo-8,16-diazatricyclo[13.3.1.0^2,7]nonadeca-1(19),2,4,6,15,17-hexaen-5-yl]carbamate, TFA salt] | 1 | 0.03 | 
COC(=O)Nc1ccc2c(c1)NC(=O)[C@H](C)CCC[C@H](N1CCC(c3c(F)cccc3C#N)=CC1=O)c1cc-2ccn1 [Example 4, Methyl N-[(10R,14S)-14-[4-(2-cyano-6-fluorophenyl)-6-oxo-1,2,3,6-tetrahydropyridin-1-yl]-10-methyl-9-oxo-8,16-diazatricyclo[13.3.1.0^2,7]nonadeca-1(19),2,4,6,15,17-hexaen-5-yl]carbamate, TFA salt] | 1 | 2.64 | 
COC(=O)Nc1ccc2c(c1)NC(=O)[C@H](C)CCC[C@H](N1CCC(c3nccc(Cl)c3F)=CC1=O)c1cc-2cc(OC)n1 [Example 5, Methyl N-[(10R,14S)-14-[4-(4-chloro-3-fluoropyridin-2-yl)-6-oxo-1,2,3,6-tetrahydropyridin-1-yl]-17-methoxy-10-methyl-9-oxo-8,16-diazatricyclo[13.3.1.0^2,7]nonadeca-1(18),2,4,6,15(19),16-hexaen-5-yl]carbamate, TFA salt] | 3 | 2 | 
COC(=O)Nc1ccc2c(c1)NC(=O)[C@H](C)CCC[C@H](N1CCC(c3nccc(Cl)c3OC)=CC1=O)c1cc-2cc(OC)n1 [Example 6, Methyl N-[(10R,14S)-14-[4-(4-chloro-3-methoxypyridin-2-yl)-6-oxo-1,2,3,6-tetrahydropyridin-1-yl]-17-methoxy-10-methyl-9-oxo-8,16-diazatricyclo[13.3.1.0^2,7]nonadeca-1(18),2,4,6,15(19),16-hexaen-5-yl]carbamate, TFA salt] | 303 | 158 | 
COC(=O)Nc1ccc2c(c1)NC(=O)[C@H](C)CCC[C@H](N1CCC(c3c(C#N)ccc(C#N)c3F)=CC1=O)c1cc-2cc(OC)n1 [Example 7, Methyl N-[(10R,14S)-14-[4-(3,6-dicyano-2-fluorophenyl)-6-oxo-1,2,3,6-tetrahydropyridin-1-yl]-17-methoxy-10-methyl-9-oxo-8,16-diazatricyclo[13.3.1.0^2,7]nonadeca-1(18),2,4,6,15(19),16-hexaen-5-yl]carbamate] | 10 | 5.42 | 
COC(=O)Nc1ccc2c(c1)NC(=O)[C@H](C)CCC[C@H](N1CCC(c3c(C#N)ccc4c(N)n[nH]c34)=CC1=O)c1cc-2cc(OC)n1 [Example 8, Methyl N-[(10R,14S)-14-[4-(3-amino-6-cyano-1H-indazol-7-yl)-6-oxo-1,2,3,6-tetrahydropyridin-1-yl]-17-methoxy-10-methyl-9-oxo-8,16-diazatricyclo[13.3.1.0^2,7]nonadeca-1(18),2,4,6,15(19),16-hexaen-5-yl]carbamate, TFA salt] | 173 | > 457 | 
COC(=O)Nc1ccc2c(c1)NC(=O)[C@H](C)CCC[C@H](N1CCC(c3c(C#N)ccc4c(N)noc34)=CC1=O)c1cc-2cc(OC)n1 [Example 9, Methyl N-[(10R,14S)-14-[4-(3-amino-6-cyano-1,2-benzoxazol-7-yl)-6-oxo-1,2,3,6-tetrahydropyridin-1-yl]-17-methoxy-10-methyl-9-oxo-8,16-diazatricyclo[13.3.1.0^2,7]nonadeca-1(18),2,4,6,15(19),16-hexaen-5-yl]carbamate, TFA salt] | 46 | 33.2 | 
COC(=O)Nc1ccc2c(c1)NC(=O)[C@H](C)CCC[C@H](N1CCC(c3nccc(Cl)c3F)=CC1=O)c1cc-2ccn1 [Example 10, Methyl N-[(10R,14S)-14-[4-(4-chloro-3-fluoropyridin-2-yl)-6-oxo-1,2,3,6-tetrahydropyridin-1-yl]-10-methyl-9-oxo-8,16-diazatricyclo[13.3.1.0^2,7]nonadeca-1(18),2,4,6,15(19),16-hexaen-5-yl]carbamate, TFA salt] | 1 | 0.92 | 
COC(=O)Nc1ccc2c(c1)NC(=O)[C@H](C)CCC[C@H](n1ncc(-c3c(F)ccc(Cl)c3F)cc1=O)c1cc-2ccn1 [Example 11, Methyl N-[(10R,14S)-14-[4-(3-chloro-2,6-difluorophenyl)-6-oxo-1,6-dihydropyridazin-1-yl]-10-methyl-9-oxo-8,16-diazatricyclo[13.3.1.0^2,7]nonadeca-1(19),2(7),3,5,15,17-hexaen-5-yl]carbamate, TFA salt] | 14 | 6.77 | 
C[C@@H]1CCC[C@H](N2CCC(c3c(F)ccc(Cl)c3F)=CC2=O)c2cc(ccn2)-c2ccccc2NC1=O [Example 13, (10R,14S)-14-[4-(3-Chloro-2,6-difluorophenyl)-6-oxo-1,2,3,6-tetrahydropyridin-1-yl]-10-methyl-8,16-diazatricyclo[13.3.1.0^2,7]nonadeca-1(19),2,4,6,15,17-hexaen-9-one] | 8 | 13.7 | 
C[C@@H]1CCC[C@H](N2CCC(c3c(F)ccc(Cl)c3F)=CC2=O)c2cc(ccn2)-c2ccc(Nc3ncccn3)cc2NC1=O [Example 16, (10R,14S)-14-[4-(3-Chloro-2,6-difluorophenyl)-6-oxo-1,2,3,6-tetrahydropyridin-1-yl]-10-methyl-5-[(pyrimidin-2-yl)amino]-8,16-diazatricyclo[13.3.1.0^2,7]nonadeca-1(19),2(7),3,5,15,17-hexaen-9-one, 2 TFA salt] | 1 | 1.15 | 
COc1ccc2c(c1)NC(=O)[C@H](C)CCC[C@H](N1CCC(c3c(F)ccc(Cl)c3F)=CC1=O)c1cc-2ccn1 [Example 17, (10R,14S)-14-[4-(3-chloro-2,6-difluorophenyl)-6-oxo-1,2,3,6-tetrahydropyridin-1-yl]-5-methoxy-10-methyl-8,16-diazatricyclo[13.3.1.0^2,7]nonadeca-1(19),2,4,6,15,17-hexaen-9-one, TFA salt] | 114 | 45.3 | 
C[C@@H]1CCC[C@H](N2CCC(c3c(F)ccc(Cl)c3F)=CC2=O)c2cc(ccn2)-c2cc(Cl)c(O)cc2NC1=O [Example 19, (10R,14S)-4-Chloro-14-[4-(3-chloro-2,6-difluorophenyl)-6-oxo-1,2,3,6-tetrahydropyridin-1-yl]-5-hydroxy-10-methyl-8,16-diazatricyclo[13.3.1.0^2,7]nonadeca-1(19),2,4,6,15,17-hexaen-9-one, TFA salt] | 52 | 15.5 | 
Cc1nnc(Nc2ccc3c(c2)NC(=O)[C@H](C)CCC[C@H](N2CCC(c4c(F)ccc(Cl)c4F)=CC2=O)c2cc-3ccn2)o1 [Example 21, (10R,14S)-14-[4-(3-Chloro-2,6-difluorophenyl)-6-oxo-1,2,3,6-tetrahydropyridin-1-yl]-10-methyl-5-[(5-methyl-1,3,4-oxadiazol-2-yl)amino]-8,16-diazatricyclo[13.3.1.0^2,7]nonadeca-1(19),2(7),3,5,15,17-hexaen-9-one, TFA salt] | 1 | 0.46 | 
COC(=O)Nc1ccc2c(c1)NC(=O)[C@H](C)CC(=O)C[C@H](N1CCC(c3c(F)ccc(Cl)c3F)=CC1=O)c1cc-2ccn1 [Example 22, Methyl N-[(10R,14S)-14-[4-(3-chloro-2,6-difluorophenyl)-6-oxo-1,2,3,6-tetrahydropyridin-1-yl]-10-methyl-9,12-dioxo-8,16-diazatricyclo[13.3.1.0^2,7]nonadeca-1(19),2,4,6,15,17-hexaen-5-yl]carbamate, TFA salt] | 352 | > 438 | 
COC(=O)Nc1ccc2c(c1)C(=O)NCCCC[C@H](N1CCC(c3c(F)ccc(Cl)c3F)=CC1=O)c1cc-2ccn1 [Example 24, Methyl N-[(14S)-14-[4-(3-chloro-2,6-difluorophenyl)-6-oxo-1,2,3,6-tetrahydropyridin-1-yl]-8-oxo-9,16-diazatricyclo[13.3.1.0^2,7]nonadeca-1(19),2(7),3,5,15,17-hexaen-5-yl]carbamate, TFA salt] | 214 | 270 | 
